Reference: article PMC8751651 (ACS Omega, 2021)
Entries after “also recorded” stand apart in the source; their conditions may differ. Where a SMILES comes first, the peptide text is derived from it. Where no end group is shown, it is not given here. The star is where a group is joined. Biotin = O=C1N[C@H]2[C@H](CS[C@H]2CCCCC(=O)*)N1

How the values were obtained:
SARS-CoV-2 RBD protein [1] = molecular target: T1, SARS-CoV-2 RBD protein (Severe acute respiratory syndrome coronavirus 2, UniProt P0DTC2); assay type: binding
influenza A virus = assay type: binding
[2] = tested on: inactivated SARS-CoV-2 virus; assay type: binding, SARS-CoV-2 (Isolate: USA-WA1/2020)
SARS-CoV-2 RBD protein [3] = molecular target: T1, SARS-CoV-2 RBD protein; assay type: binding; remark: listed apart in the source

Row | Compound | SPR binding curves / binding efficiency (SARS-CoV-2 RBD protein [1]) | gold nanoparticles on magnetic beads (TEM) (influenza A virus) | binding to inactivated virus [2] | gold nanoparticles on magnetic beads (TEM) [2] | SPR binding (SARS-CoV-2 RBD protein [3])
1 | CC(C)C[C@H](NC(=O)[C@H](Cc1ccccc1)NC(=O)[C@H](CC(=O)O)NC(=O)[C@H](Cc1ccccc1)NC(=O)[C@H](CS)NC(=O)[C@H](CO)NC(=O)CCCC[C@@H]1SC[C@@H]2NC(=O)N[C@@H]21)C(=O)N[C@@H](CC(N)=O)C(=O)N[C@@H](Cc1c[nH]c2ccccc12)C(=O)N[C@@H](C)C(=O)N[C@@H](CO)C(=O)N[C@@H](CS)C(=O)N[C@@H](CC(=O)O)C(=O)NCC(=O)NCC(=O)NCC(=O)N[C@@H](CO)C(=O)O [peptide 1] (Biotin-SCFDFLNWASCDGGGS-OH; C-terminus assumed) | can efficiently bind to the SARS-CoV-2 RBD protein; also recorded: highest binding efficiency | no gold nanoparticles are observed bound to the surface | can specifically bind to the SARS-CoV-2 virus | gold nanoparticles (dashed red circle) have conjugated onto the magnetic beads; also recorded: gold nanoparticles are observed on the magnetic beads | significant binding
2 | Biotin-SCFDFLNWASCDGGGS (cysteine pairing not given here) [Biotinylated peptide 1] |  |  |  | gold nanoparticles (dashed red circle) have conjugated onto the magnetic beads | 
